From patent US20090305225A1, “Inhibition of Creatine Uptake to Promote Weight Loss” (priority 2005, published 2009) come the findings set out here.

Assay [1] relates to 11G2L (creatine transporter mRNA). In words: Northern blot of 11G2L in hypothalamic RNA. Type of assay: in vivo, rat. The procedure: Northern Blots were used to confirm the results we obtained from the differential display. Six additional rats from each group (saline, CoPP, and fasted) were used in Northern Blot experiments. Total RNA (15 ug) extracted from the hypothalami of these rats was loaded on 1.3% formaldehyde-agarose gels. After 3.5 hours running at 56V, the gels were transferred to Hybrond-N+ membrane (Amersham, Piscataway, N.J.). The cloning inserts were released from PCR-TRAP Vectors by PCR amplification and then gel-purified with the Wizard®DNA Clean-up System (Promega). The inserts were labeled with [alpha^32P]dCTP (Perkin Elmer) using a random primers DNA labeling kit (Invitrogen, San Diego, Calif.). Labeled probe (25 ng) was denatured and then hybridized with a membrane which had been pre-incubated for 15 min in 15 ml Rapidhyb buffer (Amersham) in a Roller-Blot Hybridizer (Techne HB-3D, Cambridge, UK) for 1 hour. After washing under different stringencies, depending on the probes used, the membranes were exposed overnight to film. The autoradiographs were scanned using a GS-700 imaging densitometer (BioRad, Inc., Hercules, Calif.) and analyzed using Quantity One software (BioRad). A series of primer sets were designed using available sequences for inserts or for related mRNA cds.

Assay [2] in a line: Body weight after icv CoPP in rats. Format: in vivo, rat. Conditions: 48 hours after icv injection, 6 animals per group. As to the method:
All animal handling was approved by and done in accordance with the guidelines and requirements of the University of Vermont Institutional Animal Care Use Committee. Adult male Sprague-Dawley rats (mycoplasma free; 200 g) were purchased from Charles River (Quebec, Canada) and housed in an air-conditioned (23+1° C.) room with lights on for 12 hours daily (starting at 6:00 a.m.) in the University of Vermont Animal Facility. Rats were housed singly in regular cages with free access to Purina Rat Chow (RMH 3000) and water for at least five days prior to surgery. Stereotactic surgery was used to implant chronic indwelling stainless steel cannulae into the third ventricle of the brain under fentanyl/droperidol anesthesia. Coordinates for cannula placement were obtained from the Konig Klippel stereotactic surgery atlas; with the nose bar 2.4 mm below the intraaural line and the vertical micrometer gantry tilted 9 degrees towards the animal, the coordinates were 4.9 mm dorsal to the intraaural line, 5 mm anterior to the intraaural line and 1.1 mm lateral to the midline. A minimum of 5 days later, animals were injected icv with CoPP (which was dissolved in 0.2 N NaOH and the pH adjusted to 7.4-7.8) or other experimental compounds. […] Because of the repetitive dosing regimens, animals were trained for six days prior to the first injection to ready them for injections without anesthesia. […]

For `C=Cc1c(C)c2cc3[nH]c(cc4nc(cc5nc(cc1[nH]2)C(C)=C5CCC(=O)[O-])C(CCC(=O)[O-])=C4C)c(C)c3C=C.[Co+2]` [CoPP, Cobaltic protoporphyrin IX], in assay [1] (Northern densitometry normalized to L32, p<0.02), the “increase of 11G2L expression compared to vehicle-treated animals (fed or fasted)” value is “approximately 20%”. Also, the “Northern Blot Densitometry of 11G2L” value in assay [1] (hypothalamus, 48 hours after icv, normalized to L32 mRNA) is 1.023±* arbitrary units. For the same compound, the “Δ Weight” value in assay [2] was −29%.
